Drawing on PubChem BioAssay (NCI), this text covers GI50 and TGI for 12 compounds.

Test systems include TK-10 renal; SF-295 CNS; SNB-75 CNS; RXF 393 renal; U251 CNS; HOP-62 NSCLC; SW-620 colon; HS 578T breast; K-562 leukemia; RPMI-8226 leukemia.
What all share (experiment): NCI-60 cell line screen, 48 h

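The compound was tested at five concentrations on cells cultured in 96-well plates, with a 48-hour exposure period. The concentration for 50% growth inhibition is given as GI50. Definition used: TGI = concentration required for complete inhibition of growth.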

Take `Clc1ccc(CNc2nccc(-c3cnn4ncccc34)n2)cc1`: the GI50 with TK-10 renal is 8.71 µM; in the experiment with SF-295 CNS, 5.36 µM; with SNB-75 CNS, 6.28 µM; in the experiment with RXF 393 renal, 4.88 µM; in the experiment with U251 CNS it was 6.73 µM; with HOP-62 NSCLC it was 7.59 µM. The GI50 was 8.42 µM with SW-620 colon, 7.78 µM with HS 578T breast, 10.6 µM with K-562 leukemia and 5.8 µM in the experiment on RPMI-8226 leukemia. Further, the TGI in the experiment with TK-10 renal was more than 23.5 µM; with SF-295 CNS it was more than 18.2 µM; in the experiment on SNB-75 CNS, 12.8 µM; in the experiment with RXF 393 renal it was 10.2 µM; in the experiment on U251 CNS, more than 25 µM; in the experiment on HOP-62 NSCLC, more than 25 µM. In addition, the TGI was more than 25 µM with SW-620 colon, more than 23.5 µM in the experiment with HS 578T breast, more than 25 µM with K-562 leukemia and 20 µM with RPMI-8226 leukemia.
Turning to `CSc1ccc(SC2c3ccc(C)cc3Oc3nc(N)c(C#N)c(N)c32)cc1` (stereo not given), the GI50 is 1.96 µM with TK-10 renal; 1.58 µM in the experiment with SF-295 CNS; 2.2 µM in the experiment on SNB-75 CNS; 1.71 µM with RXF 393 renal; 1.69 µM in the experiment on U251 CNS; 1.73 µM in the experiment on HOP-62 NSCLC. The GI50 in the experiment with SW-620 colon is 2.03 µM; in the experiment with HS 578T breast, 2.19 µM; in the experiment with K-562 leukemia, 2.96 µM; in the experiment with RPMI-8226 leukemia, 2.43 µM. Besides, the TGI in the experiment with TK-10 renal stood at 3.37 µM; in the experiment on SF-295 CNS, 2.97 µM; in the experiment with SNB-75 CNS it was 7.34 µM; in the experiment on RXF 393 renal, 3.12 µM; in the experiment with U251 CNS, 3.05 µM; in the experiment with HOP-62 NSCLC it was 3.22 µM. For the same compound, the TGI worked out at 4.28 µM in the experiment with SW-620 colon, 5.53 µM in the experiment with HS 578T breast, 9.91 µM in the experiment with K-562 leukemia and 6.96 µM in the experiment on RPMI-8226 leukemia.
Consider `c1ccc(B2OCC(C3OB(c4ccccc4)OC4COB(c5ccccc5)OC43)O2)cc1` (stereo not given), for which the TGI in the experiment on TK-10 renal, in the experiment with SF-295 CNS, in the experiment on SNB-75 CNS, with RXF 393 renal, in the experiment with U251 CNS and in the experiment on HOP-62 NSCLC was more than 100 µM throughout. Further, the TGI with SW-620 colon, in the experiment on HS 578T breast, in the experiment on K-562 leukemia and in the experiment on RPMI-8226 leukemia was more than 100 µM throughout.
Consider `CCC1(NC(=O)c2cc(F)c(F)c(F)c2F)C(=O)NC(=O)N(C(C)C)C1=O` (stereo not given), for which the GI50 with TK-10 renal was more than 100 µM; with SF-295 CNS, 27.4 µM; with SNB-75 CNS, 21.3 µM; with RXF 393 renal, 25.3 µM; with U251 CNS it was 25.6 µM; in the experiment with HOP-62 NSCLC, 58 µM. In addition, the GI50 was 20.1 µM with SW-620 colon, 12 µM in the experiment with HS 578T breast, 3.54 µM in the experiment with K-562 leukemia and more than 100 µM in the experiment on RPMI-8226 leukemia. The TGI with TK-10 renal is more than 100 µM; in the experiment on SF-295 CNS it was 87.3 µM; in the experiment with SNB-75 CNS, 45.9 µM; with RXF 393 renal, 59.1 µM; in the experiment on U251 CNS it was 91.3 µM; in the experiment with HOP-62 NSCLC it was more than 100 µM. The TGI in the experiment with SW-620 colon is 50.7 µM; with HS 578T breast it was 37.2 µM; in the experiment with K-562 leukemia, 19.3 µM; in the experiment on RPMI-8226 leukemia, more than 100 µM.
As for `CC1(C)CC([P+](c2ccccc2)(c2ccccc2)c2ccccc2)=NN1`, the GI50 is 1.47 µM in the experiment on TK-10 renal; 8.68 µM in the experiment on SF-295 CNS; 5.3 µM in the experiment with SNB-75 CNS; 28.2 µM in the experiment with RXF 393 renal; 2 µM in the experiment with U251 CNS; 7.4 µM in the experiment on HOP-62 NSCLC. Besides, the GI50 in the experiment with SW-620 colon was 4.57 µM; in the experiment with HS 578T breast it was 4.96 µM; in the experiment with K-562 leukemia, 3.55 µM; with RPMI-8226 leukemia, 4.41 µM. The TGI with TK-10 renal was 16.6 µM; with SF-295 CNS, 43.9 µM; with SNB-75 CNS, more than 100 µM; in the experiment on RXF 393 renal, more than 100 µM; in the experiment with U251 CNS, more than 100 µM; in the experiment on HOP-62 NSCLC it was more than 100 µM. The TGI in the experiment with SW-620 colon, in the experiment with HS 578T breast, in the experiment on K-562 leukemia and in the experiment with RPMI-8226 leukemia was more than 100 µM each time.
Take `CN(CC(=O)O)Cc1oc(CO)cc(=O)c1O`: the TGI with TK-10 renal, with SF-295 CNS, with SNB-75 CNS, with RXF 393 renal, in the experiment with U251 CNS and in the experiment on HOP-62 NSCLC was more than 100 µM each time. For the same compound, the TGI in the experiment on SW-620 colon, in the experiment with HS 578T breast, with K-562 leukemia and with RPMI-8226 leukemia was more than 100 µM each time.
Turning to `Cc1cnccc1N=Nc1ccc(N(C)C)cc1`, the TGI in the experiment on TK-10 renal was 50.9 µM; with SF-295 CNS, 57.5 µM; with SNB-75 CNS, 46.2 µM; with RXF 393 renal, 53 µM; in the experiment with U251 CNS, 70.9 µM; in the experiment on HOP-62 NSCLC, more than 100 µM. For the same compound, the TGI in the experiment with SW-620 colon is more than 100 µM; with HS 578T breast it was more than 100 µM; with K-562 leukemia, 76.7 µM; in the experiment with RPMI-8226 leukemia it was 48.3 µM.
For the compound `FC(F)(F)c1cccc2c(SCCc3n[nH]c(=S)o3)ccnc12`, the GI50 with TK-10 renal was 66.6 µM; with SF-295 CNS, 48.7 µM; with SNB-75 CNS, 36.3 µM; with RXF 393 renal it was 57 µM; in the experiment with U251 CNS, 53.3 µM; with HOP-62 NSCLC, 94.2 µM. The GI50 is more than 100 µM in the experiment on SW-620 colon, 30.1 µM in the experiment on HS 578T breast, 47.4 µM in the experiment on K-562 leukemia and 30.3 µM with RPMI-8226 leukemia. Also, the TGI in the experiment with TK-10 renal, in the experiment with SF-295 CNS, with SNB-75 CNS, in the experiment on RXF 393 renal, in the experiment on U251 CNS and with HOP-62 NSCLC was more than 100 µM throughout. For the same compound, the TGI with SW-620 colon, with HS 578T breast, in the experiment with K-562 leukemia and in the experiment on RPMI-8226 leukemia was more than 100 µM in each case.
For `N#C/C(=C\c1c(-c2ccccc2)[nH]c2ccccc12)C(=O)c1ccccc1`, the GI50 in the experiment with TK-10 renal is 11.1 µM; in the experiment on SF-295 CNS, 3 µM; with SNB-75 CNS it was 3.2 µM; with RXF 393 renal, 9.61 µM; in the experiment with U251 CNS, 4.73 µM; in the experiment on HOP-62 NSCLC, 16.3 µM. Moreover, the GI50 in the experiment on SW-620 colon was 2.97 µM; in the experiment on HS 578T breast it was 6.26 µM; with K-562 leukemia it was more than 100 µM; in the experiment on RPMI-8226 leukemia it was 2.43 µM. Besides, the TGI in the experiment with TK-10 renal is 86.9 µM; in the experiment with SF-295 CNS, more than 100 µM; with SNB-75 CNS it was 34 µM; in the experiment on RXF 393 renal it was more than 100 µM; in the experiment on U251 CNS, 27.4 µM; in the experiment with HOP-62 NSCLC it was more than 100 µM. In addition, the TGI in the experiment on SW-620 colon was more than 100 µM; with HS 578T breast it was 40.5 µM; in the experiment on K-562 leukemia, more than 100 µM; in the experiment with RPMI-8226 leukemia, 7.98 µM.
As to `Nc1ccc(C(OC(=O)c2cc3ccccc3c(Cc3c(O)c(C(=O)OC(c4ccc(N)cc4)(c4ccc(N)cc4)c4ccc(N)cc4)cc4ccccc34)c2O)(c2ccc(N)cc2)c2ccc(N)cc2)cc1`, the GI50 in the experiment on TK-10 renal was 5.23 µM; in the experiment with SF-295 CNS it was 0.475 µM; in the experiment on SNB-75 CNS it was 0.497 µM; in the experiment on RXF 393 renal it was 1.83 µM; in the experiment with U251 CNS it was 0.248 µM; in the experiment with HOP-62 NSCLC, 0.331 µM. Besides, the GI50 in the experiment on SW-620 colon is 1.14 µM; with HS 578T breast it was 0.201 µM; with K-562 leukemia, 0.682 µM; in the experiment on RPMI-8226 leukemia, 0.476 µM. Further, the TGI in the experiment with TK-10 renal is 21.3 µM; in the experiment on SF-295 CNS, more than 100 µM; in the experiment on SNB-75 CNS, 11.7 µM; in the experiment with RXF 393 renal, 6.7 µM; in the experiment with U251 CNS it was 12.6 µM; with HOP-62 NSCLC, 14.1 µM. Further, the TGI in the experiment with SW-620 colon was 13.9 µM; in the experiment with HS 578T breast it was 0.867 µM; with K-562 leukemia, more than 100 µM; in the experiment on RPMI-8226 leukemia it was more than 100 µM.
On to `C[C@@H](COCCC(=O)N1CCN(c2ncc(C(F)(F)F)cn2)CC1)Nc1cn[nH]c(=O)c1C(F)(F)F`, for which the GI50 with TK-10 renal was more than 100 µM; with SF-295 CNS, 19.5 µM; in the experiment on SNB-75 CNS it was 47.8 µM; in the experiment on RXF 393 renal it was 32.8 µM; in the experiment on U251 CNS, 29.3 µM; in the experiment with HOP-62 NSCLC, 23.6 µM. Moreover, the GI50 in the experiment with SW-620 colon is 3.84 µM; in the experiment with HS 578T breast, 50.7 µM; in the experiment with K-562 leukemia, 36.9 µM; in the experiment with RPMI-8226 leukemia, 31.8 µM. Besides, the TGI with TK-10 renal, in the experiment with SF-295 CNS, in the experiment on SNB-75 CNS, in the experiment on RXF 393 renal, in the experiment with U251 CNS and in the experiment on HOP-62 NSCLC was more than 100 µM each time. The TGI in the experiment with SW-620 colon, in the experiment on HS 578T breast, with K-562 leukemia and with RPMI-8226 leukemia was more than 100 µM throughout.
With `NC(=O)c1ccccc1NC(=O)c1ccccc1Cl`, the GI50 in the experiment with TK-10 renal, in the experiment on SF-295 CNS, in the experiment with SNB-75 CNS, in the experiment on RXF 393 renal, with U251 CNS and in the experiment with HOP-62 NSCLC was more than 100 µM throughout. The GI50 in the experiment on SW-620 colon, in the experiment with HS 578T breast, with K-562 leukemia and in the experiment with RPMI-8226 leukemia was more than 100 µM throughout. For the same compound, the TGI in the experiment on TK-10 renal, with SF-295 CNS, in the experiment on SNB-75 CNS, with RXF 393 renal, in the experiment on U251 CNS and in the experiment on HOP-62 NSCLC was more than 100 µM in each case. For the same compound, the TGI with SW-620 colon, in the experiment on HS 578T breast, with K-562 leukemia and with RPMI-8226 leukemia was more than 100 µM in each case.
